From patent US5464821A, “Small peptidic compounds useful for the treatment of glaucoma” (Carlbiotech, Ltd., priority 1991, dated 1995)
Residues, ends and D or L forms follow the SMILES beside them. *: point of attachment. OBn = c1ccc(CO*)cc1; Acm = CC(=O)NC*

Key:
[1] = system: water load induced hypertension in the rabbit's eye; assay: water load model, intraocular pressure in the rabbit's eye; type: in vivo
Description: The findings of IOP lowering effects in the stress induced rabbit model have been confirmed and further studied by using another elevated eye pressure rabbit model. In this model, the widely applied water load model, elevation of the intraocular pressure is achieved by injecting a large volume of sterile water intraperitoneally into the rabbits. Following onset of eye drop treatment in one eye while the other eye is treated with saline placebo, the intraocular pressure of both eyes is then measured at various intervals and the .pressure difference between the eyes is taken as an expresion of the pharmaceutical effect.
The studies utilized a "water load" animal model.
Thirty minutes before drug solution instillation, rabbits were injected intraperitonally with 60 ml/kg of sterile distilled water for injection (30° C.) spiked with an antibiotic mixture (Sigma P9032).
At time zero, 50 μl of a drug solution was instilled to one eye and an equal volume of a saline solution was instilled to the other eye. The IOP in each eye was monitored at the time points indicated. The change in IOP at each time point is computed by subtracting the IOP in the dosed eye from that in the undosed-eye.
From these plots were assessed the maximal IOP effect, the time to reach this and the time for returning to a zero or insignificant level of IOP lowering effect. These figures were taken as a measure of potency and duration of effect.
(§1) Peptides were tested for the intraocular pressure lowering or antagonizing effects in the water load model described above or the stress induced antagonizing model respectively, in groups of four to ten rabbits, as described below. The tests were performed on homogeneous groups of randomly sexed rabbits, weight 2.5-3.0 kg, but of different breeds in various laboratories several places in the world. Thus, in some cases intergroup variations were found in the absolute starting pressure of the rabbit's eyes.
(§2) In the case of the water load model structure, each rabbit served as its own reference control for the duration of the experiment, and in the case of the stress induced antagonistic model, each group of rabbits served as reference control, at the beginning and end of 10 stress units. Usually, the peptides were dissolved in plain isotonic saline, but in one case in the waterload model, a TRIS-buffer at physiological pH was included.
50 μl of a 1% solution of the peptides in 0.9% aqueous saline were applied in one eye and 50 μl of 0.9% aqueous saline in the other eye 30 minutes after the intraperitonal water loading and IOP were measured in both eyes for 2 hours and the difference calculated.
50 μl of 1% solution of the peptides in 0.9% isotonic saline containing TRIS-buffer pH 7.4 was applied in one eye and 50 μl of 0.9% isotonic saline containing TRIS-buffer. pH 7.4 in the other eye 30 minutes after the interperitonal water loading and intraocular pressure was measured in both eyes for 2 hours and the difference calculated.

[2] = system: stress induced intraocular pressure in the rabbit's eye; assay: stress induced antagonizing model, intraocular pressure in the rabbit's eye; type: in vivo; set-up: key to Antagonizing Effect: Active: the pressure increase following 10 stress units for the treated group on average was found to be smaller than 2 mm Hg and to be significantly less compared to untreated controls; details: for Antagonizing Effect: 1% solution in 0.9% aqueous NaCl, 60 μl topically 3 times daily over 5 days, following 10 stress units
Description: The main feature of this clinical model is a stress induced elevation of the IOP in the rabbit eye above the initial and normal value. The stress is exerted, i.e. applied, in the form of measuring the pressure (at 12 hour intervals) with the help of a SHIOTZ-Tonometer, which is loaded with 7.5 grams. The pressure first begins to rise after 5 measurements, i.e. after 21/2 days, and reaches a maximum after 10 measurements, i.e. after 5 days.
Known antiglaucoma drugs lower the intraocular pressure when they are applied after the intraocular pressure (IOP) has clearly been established,in spite of the fact that the trauma, i.e. the measuring of the pressure, continued during the treatment.
Antagonizing of the Intraocular Pressure in the stressed Rabbit's Eyes Model
The compound was a freeze-dried powder, and was applied to the rabbit eye as a powder, or as drops, dissolved in 0.9% NaCl aqueous solution. Negative control was 0.9% NaCl solution in water.
as §1, §2
The peptides were applied topically as a 1% solution in 0.9% aqueous NaCl in aliquots of 60 μl 3 times daily over a period of 5 days.

[3] = from PCT/DK90/00322; cited from earlier work
[4] = system: stress induced intraocular pressure in the rabbit's eye; details: earlier work in the laboratory of one of the inventors; cited from earlier work
[5] = single dose 50 μl of 1% solution in 0.9% aqueous saline in one eye, saline in the other, IOP measured for 2 hours

With `CC(=O)NCC(=O)NCC(=O)N[C@H](C(N)=O)C(C)C` [Ac-Gly-Gly-Val-NH2] (Ac-Gly-Gly-Val-NH2) as the molecule, how does the “Pressure Lowering Effect” value [1, 5] read?
The value was “Active”.

And the “Antagonizing Effect” value [2]?
Its value is “Active”.

Which “Antagonizing Effect” value [2] does the source give for `CC(C)[C@H](NC(=O)CNC(=O)CNC(=O)[C@@H](N)CC(N)=O)C(N)=O` [H-Asn-Gly-Gly-Val-NH2] (H-NGGV-NH2) here?
Its value is “Active”.

With `CC(C)C[C@H](NC(=O)[C@@H](N)CC(N)=O)C(=O)NCC(=O)N[C@@H](Cc1ccc(O)cc1)C(N)=O` [H-Asn-Leu-Gly-Tyr-NH2] (H-NLGY-NH2) as the molecule, how does the “Antagonizing Effect” value [2] read?
The value was “Active”.

For `CC(C)C[C@H](NC(=O)[C@@H](N)CC(N)=O)C(=O)NCC(=O)N[C@H](C(N)=O)C(C)C` [H-Asn-Leu-Gly-Val-NH2] (H-NLGV-NH2), which “Antagonizing Effect” value [2] is on record?
Its value is “Active”.

Which “Antagonizing Effect” value [2] does the source give for `CCOC(=O)[C@@H](NC(=O)CNC(=O)CN)C(C)C` [H-Gly-Gly-Val-OEt] (H-Gly-Gly-Val-OEt) here?
Its value is “Active”.

With `CC(C)[C@H](NC(=O)CN)C(=O)OCc1ccccc1` [H-Gly-Val-OBzl, Glycyl-L-Valine-Benzylester] (H-Gly-Val-OBn) as the molecule, how does the “Pressure Lowering Effect” value [1, 5] read?
The value was “Active”.

And the “Antagonizing Effect” value [2]?
Its value is “Active”.

What about the “antagonizing effect / efficacy in the stress induced rabbit model (in words)” value ([2]; stress induced model) of the same molecule?
The value was “good efficacy”.

For `CC(C)[C@H](NC(=O)CN)C(=O)N[C@@H](Cc1ccc(O)cc1)C(N)=O` [H-Gly-Val-Tyr-NH2] (H-Gly-Val-Tyr-NH2), which “Pressure Lowering Effect” value [1, 5] is on record?
Its value is “Active”.

And the “Antagonizing Effect” value [2]?
Its value is “Active”.

With `CC(C)[C@H](NC(=O)CCN)C(=O)OCc1ccccc1` [H-β-Ala-Val-OBzl, β-alanyl L-valine Benzylester] as the molecule, how does the “Pressure Lowering Effect” value ([1]; single dose 50 μl of 1% solution in 0.9% isotonic saline containing TRIS-buffer pH 7.4, IOP measured for 2 hours) read?
The value was “Active”.

For `CC(=O)NCSC[C@H](NC(=O)[C@@H](NC(=O)CNC(=O)[C@H](CC(C)C)NC(=O)[C@@H](N)CC(N)=O)C(C)C)C(N)=O` [HAsnLeuGlyValCys(Acm)NH2, H-Asn-Leu-Gly-Val-Cys(Acm)-NH2] (H-NLGVC(Acm)-NH2), which “penetration of the sclera of the eye” value [3] is on record?
Its value is “penetrate the sclera of the eye”.

With `CC[C@@H]1C(=O)OC[C@@H]1Cc1cncn1C` [pilocarpine, reference compound] as the molecule, how does the “pressure lowering effect in the water load model (in words)” value ([1]; 2.6% solution, positive reference control) read?
Its value is “gave a similar response to some of the preferred compounds”.

For `CC(C)(C)NC[C@H](O)COc1nsnc1N1CCOCC1` [timolol], which “pressure lowering effect of known drugs in the stress model” value [4] is on record?
Its value is “pressure lowering effect”.
